According to patent publication US20110263642A1, “METHODS FOR TREATMENT OF MULTIPLE SCLEROSIS” (FibroGen, Inc., priority 2008, published 2011):

Test system: EAE animal model of chronic progressive multiple sclerosis
Assay: Chronic progressive EAE induced by MOG35-55 and pertussis toxin in mice, neurological scoring to day 35
Type: in vivo, C57BL/6 mice
Conditions: for treated animals in which development of EAE disease was prevented / No. of Animals Showing No Disease Activity: through day 35
Source text: A chronic progressive model of EAE is an accepted animal model of human chronic progressive multiple sclerosis (MS). In this model, induction of chronic progressive EAE occurs following injections of myelin oligodendrocyte glycoprotein (MOG). Approximately 8 to 14 days after injection of MOG, animals develop chronic progressive paralysis similar to that observed in humans with chronic progressive MS.
Female C57BL/6 mice (8-10 weeks old) were used in this study (Taconic Farm, CA). Compounds of the present invention were formulated in 0.5% carboxymethyl cellulose (CMC) with 0.1% Polysorbate 80 to achieve a final concentration of either 1.2 mg/ml or 4.0 mg/ml. FTY-720 was also formulated in 0.5% carboxymethyl cellulose (CMC) with 0.1% Polysorbate 80 to achieve a final concentration of 2.0 mg/ml.
Induction of chronic progressive EAE by injection with myelin oligodendrocyte glycoprotein (MOG) was performed as follows. Mice were injected subcutaneously with 200 μg of myelin oligodendrocyte glycoprotein (MOG35-55) peptide emulsion in both sides of their pectoral regions (50 μl each side). At 8 hours and 48 hr after immunization with MOG, animals were injected intraperitoneally with 400 ng of pertussis toxin (PT) in 100 μl of saline. Control mice received both injections with an equivalent volume of saline without MOG or PT.
[…] FTY-720 (10 mg/kg) was used in this study as a positive control and was administered daily from day 0 to day 35.
Neurological scoring was performed daily from day 7 to day 35 following MOG injection. Grading of disease severity (i.e., disease score) was based on the following observations performed by two different observers: 0=no abnormality; 1=distal weakness of the tail (limp tail); 2=limp tail and weakness of hind legs (mild paraparesis); 3=limp tail and complete paralysis of hind legs or paralysis in one of one front leg and one hind leg (moderate paraparesis); 4=limp tail, complete hind leg and partial front leg paralysis (moderate quadraparesis); 5=complete hind and front leg paralysis (moribund). Analysis of variance (ANOVA) was performed on data from the measured (neurological score) parameters. p value≦0.05 were considered significant.

## N#Cc1nc(C(=O)NCC(=O)O)c(O)c2c(Oc3ccccc3)cccc12 [Compound A, [(1-Cyano-4-hydroxy-5-phenoxy-isoquinoline-3-carbonyl)-amino]-acetic acid]
10 mg/kg as printed
  treated animals in which development of EAE disease was prevented: 40%
10 mg/kg or 30 mg/kg as printed, p.o. three times a week, day 0-35, FIG. 5
  disease severity compared to vehicle-treated control EAE animals: reduction in disease severity at all timepoints
30 mg/kg as printed, p<0.05
  treated animals in which development of EAE disease was prevented: 43%
First EAE/Cmpd A row, dose not printed in Table 4 (Table 3: 6 mg/kg/d, 3 times a week)
  No. of Animals Showing No Disease Activity: 6/15
Second EAE/Cmpd A row, dose not printed in Table 4 (Table 3: 20 mg/kg/d, 3 times a week)
  No. of Animals Showing No Disease Activity: 6/14
